Measurements reported in PMC11767451, “Novel Approaches to Monitor Pharmacokinetics and Metabolism of Gemcitabine-Ibandronate Conjugate in Mice and Dogs” (Molecules, 2025).
Where two headings read alike, the source gives them in different places.

Experiment: Proof-of-concept mouse PK study, plasma levels of GEM-IB and metabolites by HPLC-MS/MS
Format: in vivo, mice
Conditions: for Cmax: analyte = parent or metabolite; for AUC: over the observation period
Description: Assay A (GEM-IB and IB): The extraction of calibration standards, quality control samples, and PK study samples was identical. Plasma, quality control stocks, and calibrator stocks were removed from the storage freezer and kept at room temperature until fully thawed. Aliquots of 100 μL of standards/quality control or blank sample were transferred into a 1.5 mL low-binding polypropylene vial with a conical bottom and snap-on lid. An amount of 10 µL of the of the internal standard solution (15 and 10 µg/mL of IB-D3 and ATP-IS, respectively) was added and mixed. For protein precipitation, 50 μL of methanol was added and then samples were vortexed for 10 min. This was followed by centrifugation at 25,000× g for ten minutes at 4 °C (Thermo Scientific MR 23i Centrifuge, Thermo Scientific, Waltham, MA, USA). To remove remaining protein, the supernatant was transferred to 10,000 molecular weight cut off (MWCO) centrifugal filters (800 µL volume, PES 10,000 with 2.0 mL receiver tubes, Analytical Sales and Services, Flanders, NJ, USA) and centrifuged again at 25,000× g for ten minutes at 4 °C. The filtrate was transferred into HPLC vials and placed into the HPLC autosampler maintained at 4 °C.
Assay B (GEMMP, GEM dFdUMP and dFdU): The extraction of calibration standards and quality control samples was identical to that of study samples. An amount of 200 µL of plasma sample was added to a 1.5 mL snap-top Eppendorf tube with 100 µL of protein precipitation solution. The samples were then vortexed for five minutes followed by centrifugation at 25,000× g for ten minutes at 4 °C. Hereafter, supernatants were transferred to 10K Amicon centrifugal filters (Merck-Millipore, Burlington, MA, USA) and centrifuged at the same settings for 60 min. The filtrates were then transferred into HPLC vials for analysis.
Assay A (GEM-IB and IB): Quantification of the analytes was carried out using high-performance liquid chromatography–tandem mass spectrometry (HPLC-MS/MS). Chromatography was performed using an Agilent 1260 Infinity II bio-inert HPLC system (Agilent Technologies, Santa Clara, CA, USA) on a Hypercarb Porous Graphitic Carbon HPLC column (3 µm, 2.1 × 50 mm, Thermo Scientific, Waltham, MA, USA). The HPLC system consisted of an Agilent 1260 Infinity II bio-inert quaternary pump, an Agilent 1260 Infinity II bio-inert column oven, and an Agilent 1260 Infinity II bio-inert autosampler (Agilent Technologies, Santa Clara, CA, USA). An amount of 10 µL of the sample extracts was injected. The column was maintained at 22 °C. HPLC-MS-grade water supplemented with 10 mM hexafluoroisopropanol (HFIP) and 0.05% (v/v) diethyl amine (DEA) at pH 9.4 was used for the aqueous mobile phase (Buffer A) and HPLC-grade acetonitrile was used for the organic mobile phase (Buffer B). The flow rate was set to 400 µL/min throughout the assay. The initial settings were 98% Buffer A and 2% organic Buffer B for the first two minutes. During the following 0.7 min, the organic Buffer B was increased to 30%. At minute 3.5, the gradient reached 98% Buffer B, which was kept for 0.5 min, and at minute 4.2 the column was re-equilibrated to starting conditions for 2.8 min until the next injection. The HPLC system was connected to a Sciex a 5500+ triple quadrupole mass spectrometer (SCIEX, Concord, ON, Canada) via a turbo electrospray ionization source (SCIEX) operated in the negative electrospray ionization (ESI) mode. Data were acquired in negative multiple reaction monitoring (MRM) mode and all compounds were detected as [M–H ]^−. The ion transitions used during the multiple reaction monitoring mode were m/z = 318→236, 321→239, 643→342, and 521→79 for IB, IB-D3, GEM-IB, and adenosine-^13C10,^15N5 5′-triphosphate (^13C10-^15N5-ATP), respectively. The dwell time for analysis was set to 50 ms. The curtain gas was kept at 20 psi and the ion source gas at 55 psi. The ion spray voltage was −4500 volts, and the temperature of the ion source was set to 400 °C. […]

[1] = ip, after GEM-IB 5 mg/kg i.p., read-out: Tmax
[2] = mouse, plasma, ip, 5 mg/kg, after GEM-IB 5 mg/kg i.p., read-out: AUC
[3] = mouse, plasma, ip, 5 mg/kg, after GEM-IB 5 mg/kg i.p., read-out: T1/2 (converted)
[4] = mouse, plasma, ip, 5 mg/kg, after i.p. injection of GEM-IB 5 mg/kg, read-out: half-life

Compound	Rate Constant (after GEM-IB 5 mg/kg i.p.) [h⁻¹]	Cmax (ip, after GEM-IB 5 mg/kg i.p.) [ng/mL]	CL (after GEM-IB 5 mg/kg i.p.) [mL/min/kg]	Vdss (after GEM-IB 5 mg/kg i.p.) [L/kg]	Tmax [1] [min]	AUC [2] [ng·h/mL]	half-life [3] [min]	half-life [4] [min]	AUC (after GEM-IB 5 mg/kg i.p.) [ng·h/mL]	AUC (after GEM-IB 5 mg/kg i.p., listed as dFdU-MP) [ng·h/mL]	T1/2 (after GEM-IB 5 mg/kg i.p.) [min]	Tmax (after GEM-IB 5 mg/kg i.p.) [min]
Nc1ccn([C@@H]2O[C@H](CO)[C@@H](O)C2(F)F)c(=O)n1 [GEM, gemcitabine]	1.5	2120									26.9	4.98
CCCCCN(C)CCC(O)(P(=O)(O)O)P(=O)(O)OP(=O)(O)OC[C@H]1O[C@@H](n2ccc(N)nc2=O)C(F)(F)[C@@H]1O (stereo partly drawn) [GEM-IB]	5.0	4180	65.65	0.469	4.98	1280	8.28	8				
Nc1ccn([C@@H]2O[C@H](COP(=O)(O)O)[C@@H](O)C2(F)F)c(=O)n1 [GEMMP, gemcitabine-5′-phosphate]	4.0	1310			4.98	405	10.3					

Second part, led by results:

Rate Constant (after GEM-IB 5 mg/kg i.p.) [h⁻¹]	Cmax (ip, after GEM-IB 5 mg/kg i.p.) [ng/mL]	CL (after GEM-IB 5 mg/kg i.p.) [mL/min/kg]	Vdss (after GEM-IB 5 mg/kg i.p.) [L/kg]	Tmax [1] [min]	AUC [2] [ng·h/mL]	half-life [3] [min]	half-life [4] [min]	AUC (after GEM-IB 5 mg/kg i.p.) [ng·h/mL]	AUC (after GEM-IB 5 mg/kg i.p., listed as dFdU-MP) [ng·h/mL]	Compound	T1/2 (after GEM-IB 5 mg/kg i.p.) [min]	Tmax (after GEM-IB 5 mg/kg i.p.) [min]
2.6	22800			4.98	10700	16.1	16			CCCCCN(C)CCC(O)(P(=O)(O)O)P(=O)(O)O [IB, ibandronate]		
0.4	832			60		108				O=c1ccn([C@@H]2O[C@H](CO)[C@@H](O)C2(F)F)c(=O)[nH]1 [dFdU, 2′,2′-difluoro-2′-deoxyuridine]		
11.1	130			4.98		3.78		38	3389	O=c1ccn([C@@H]2O[C@H](COP(=O)(O)O)[C@@H](O)C2(F)F)c(=O)[nH]1 [dFdUMP, 2′,2′-difluoro-2′-deoxyuridine-5′-phosphate]		
